PubChem BioAssay (NCI)
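In this assay, cells in 96-well plates receive the compound at five concentrations for 48 hours. Endpoints are linearly interpolated between the surrounding concentrations. TGI denotes the concentration required for complete inhibition of growth.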

How the values were obtained:
Assay in all cases: NCI tumour cell line growth inhibition, 48 h
[1] = tested on: 786-0 renal
[2] = tested on: A549 NSCLC
[3] = tested on: ACHN renal
[4] = tested on: CCRF-CEM leukemia
[5] = tested on: COLO 205 colon
[6] = tested on: DLD-1 colon
[7] = tested on: DMS 114 small cell lung
[8] = tested on: DMS 273 small cell lung
[9] = tested on: EKVX NSCLC
[10] = tested on: HCC-2998 colon
[11] = tested on: HCT-116 colon
[12] = tested on: HCT-15 colon
[13] = tested on: HL-60(TB) leukemia
[14] = tested on: HOP-18 NSCLC
[15] = tested on: HOP-92 NSCLC
[16] = tested on: HT29 colon
[17] = tested on: IGROV1 ovarian
[18] = tested on: K-562 leukemia
[19] = tested on: KM12 colon
[20] = tested on: KM20L2 colon
[21] = tested on: LOX IMVI melanoma
[22] = tested on: LXFL 529 NSCLC
[23] = tested on: M14 melanoma
[24] = tested on: M19-MEL melanoma
[25] = tested on: MOLT-4 leukemia
[26] = tested on: NCI-H226 lung
[27] = tested on: NCI-H23 lung
[28] = tested on: NCI-H522 lung
[29] = tested on: OVCAR-3 ovarian
[30] = tested on: OVCAR-4 ovarian
[31] = tested on: OVCAR-8 ovarian
[32] = tested on: RPMI-8226 leukemia
[33] = tested on: RXF-631 renal
[34] = tested on: SF-295 CNS
[35] = tested on: SF-539 CNS
[36] = tested on: SK-MEL-2 melanoma
[37] = tested on: SK-MEL-28 melanoma
[38] = tested on: SK-MEL-5 melanoma
[39] = tested on: SK-OV-3 ovarian
[40] = tested on: SN12C renal
[41] = tested on: SNB-19 CNS
[42] = tested on: SNB-75 CNS
[43] = tested on: SNB-78 CNS
[44] = tested on: SW-620 colon
[45] = tested on: TK-10 renal
[46] = tested on: U251 CNS
[47] = tested on: UACC-62 melanoma
[48] = tested on: UO-31 renal
[49] = tested on: A498 renal
[50] = tested on: CAKI-1 renal
[51] = tested on: HOP-62 NSCLC
[52] = tested on: MALME-3M melanoma
[53] = tested on: NCI-H460 lung
[54] = tested on: OVCAR-5 ovarian
[55] = tested on: RXF 393 renal
[56] = tested on: SF-268 CNS
[57] = tested on: SR leukemia
[58] = tested on: UACC-257 melanoma
[59] = tested on: XF 498 CNS

Measured: TGI

c1ccc(-c2csc3ncn4cnnc4c23)cc1
84.7 µM: [15]
89.3 µM: [42]
not listed: [49] | [50] | [51] | [52] | [53] | [54] | [55] | [56] | [57] | [58] | [59]
> 100 µM: all other assays above

Cc1ccc(NC(=O)/C(C#N)=C/c2ccccc2)c(C)c1
not listed: [21] | [33]
> 100 µM: all other assays above

N#C/C(=C1\OC(=N)C(c2ccc(Cl)cc2Cl)C1=O)c1ccc(Cl)cc1Cl (stereo unspecified)
not listed: [4] | [10] | [14] | [19] | [46] | [51] | [53] | [57]
> 100 µM: all other assays above

C[C@H]1C(=O)c2c(cc(O)c(C3OC(CO)C(O)C(O)C3O)c2O)OC1c1ccc(O)c(O)c1 (stereo partly specified)
98.9 µM: [26]
not listed: [1] | [5] | [6] | [8] | [10] | [12] | [14] | [18] | [20] | [21] | [22] | [29] | [30] | [32] | [35] | [36] | [38] | [40] | [42] | [44] | [50] | [52] | [56] | [59]
> 100 µM: all other assays above
